This test has as its target T1, 5-lipoxygenase (Rattus norvegicus, UniProt P12527).
T1 construct: 20,000×g supernatant from 6×10^4 homogenized RBL-1 cells; endogenous in cells; host or cells: RBL-1 cells (20,000×g supernatant of homogenate)
T1 sequence (P12527 1-673): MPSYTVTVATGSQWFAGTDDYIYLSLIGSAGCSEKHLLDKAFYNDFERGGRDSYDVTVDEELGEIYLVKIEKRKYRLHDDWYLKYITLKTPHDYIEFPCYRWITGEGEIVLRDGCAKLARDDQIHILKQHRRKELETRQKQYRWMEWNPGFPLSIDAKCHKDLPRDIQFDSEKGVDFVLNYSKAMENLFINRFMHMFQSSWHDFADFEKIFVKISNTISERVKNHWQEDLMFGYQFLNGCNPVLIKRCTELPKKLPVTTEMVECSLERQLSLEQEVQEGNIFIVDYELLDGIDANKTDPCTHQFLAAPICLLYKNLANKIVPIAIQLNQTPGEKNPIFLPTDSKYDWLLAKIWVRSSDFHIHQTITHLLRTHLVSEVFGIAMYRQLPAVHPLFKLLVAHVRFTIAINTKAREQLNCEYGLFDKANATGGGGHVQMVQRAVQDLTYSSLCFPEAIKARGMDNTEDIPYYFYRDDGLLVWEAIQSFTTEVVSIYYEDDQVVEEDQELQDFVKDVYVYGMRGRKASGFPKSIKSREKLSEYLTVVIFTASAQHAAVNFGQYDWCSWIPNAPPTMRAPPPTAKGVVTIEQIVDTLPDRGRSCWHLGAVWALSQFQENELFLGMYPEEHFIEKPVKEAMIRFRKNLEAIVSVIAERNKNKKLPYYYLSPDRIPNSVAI
Nature of the test: 5-lipoxygenase inhibition, 20,000×g supernatant of homogenized RBL-1 cells, radiolabelled arachidonic acid. It is filed as biochemical. As to conditions: In vitro 5-lipoxygenase inhibitory potency; RBL-1 cell 20,000×g supernatant, 2% DMSO. As for the experimental part: Assays to determine 5-lipoxygenase activity were performed in 200 μL incubations containing the 20,000×g supernatant from 6×10^4 homogenized RBL-1 cells, 2% DMSO vehicle and various concentrations of the test compound. Reactions were initiated by addition of radiolabelled arachidonic acid and terminated by acidification and ether extraction. Reaction products were separated from nonconverted substrate by thin layer chromatography and measured by liquid scintillation spectroscopy. All treatments were evaluated in triplicate incubations. Inhibition of 5-lipoxygenase activity was computed by comparison of the quantity of products formed in the treatment incubations to the mean product formation in vehicle control groups (n=8). IC50 values and 95% confidence limits were computed by linear regression analysis of percentage inhibition versus log inhibitor concentration plots. The results of the assay indicate that the compounds are inhibitors of 5-lipoxygenase.

pIC50: −log10 of the molar value.

Usually pIC50 stands for the negative decadic logarithm of the IC50, by convention in mol/L. `CNC(=O)N(O)Cc1nc2ccccc2n1C` [Example 1, N-hydroxy-N-(1-methyl-benzo[b]imidazol-2-ylmethyl)N'-methylurea] showed a pIC50 of 4.07.

`CC(c1nc2ccccc2s1)N(O)C(N)=O` (centres unmarked) [Example 2, N-hydroxy-N-(1-benzo[b]thiazol-2-ylethyl)urea] showed a pIC50 of 5.72.

For the origin of these results see US4822809A, “Benzazole lipoxygenase inhibiting compounds” (Abbott Laboratories, priority 1987, dated 1989).
